Results as given in patent US20030215498A1, “Rapidly disintegrating comressed tablets comprising biologically active compounds” (priority 2002, published 2003).

Assay: Dissolution testing of acetaminophen particles (USP XXIII, Apparatus 2, paddle)
Type: physicochemical
Conditions: 900 ml water, 37° C., USP Apparatus 2, paddle 50 rpm, amount equivalent to 500 mg acetaminophen, n = 6
Procedure: Dissolution testing of the acetaminophen particles was carried out using USP XXIII “Acetaminophen capsules” and “Dissolution '711”, which are incorporated herein by reference. The method was adapted to use a relevant quantity of powder, i.e. an amount equivalent to 500 mg of acetaminophen in the dissolution bowl. This quantity represents a standard amount of […] in marketed U.S.A. over-the-counter (OTC) products. The operating conditions included 900 ml of water at 37° C. in a USP Apparatus 2 with paddle speed set at 50 rpm. FIG. 1 presents the dissolution-curves of acetaminophen and 4.6% lipid-based coated acetaminophen, i.e. 4.6% coating and 95.4% acetaminophen.

Compound: CC(=O)Nc1ccc(O)cc1 [100% Acetaminophen, Acetaminophen]
- Dissolution % (5 min): 66.3%
- Dissolution % (10 min): 90.8%
- Dissolution % (15 min): 95.7%
- Dissolution % (20 min): 97.1%
- Dissolution % (30 min): 97.5%
- Dissolution % (45 min): 97.7%
- Dissolution % (60 min): 97.7%
